Measured values: the supplement of paper PMC10307832

Columns and labels:
Assay in all cases: relative viability (nuclei count vs DMSO), 5 days (fraction); higher = more cells survive
AZ505 + Alpelisib = compound: C1CCC(CC1)N(CCNCCC2=C3C(=C(C=C2)O)NC(=O)CO3)C(=O)CCNCCC4=CC(=C(C=C4)Cl)Cl [AZ505] + Cc1nc(NC(=O)N2CCC[C@H]2C(N)=O)sc1-c1ccnc(C(C)(C)C(F)(F)F)c1 [Alpelisib] (partner 2 µM)
Outline: (§1)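 Lung cancer cell lines in 1536-well plates got either a single drug or a fixed anchor-drug dose together with five library-drug doses (not always all listed) in √10 steps, by pin tool, on the day after seeding. Nuclei were counted after 5 days, and relative viability is the treated-to-vehicle ratio of nuclei counts. Values are medians of duplicate plates.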

Dactolisib + Palbociclib = compound: Cn1c(=O)n(-c2ccc(C(C)(C)C#N)cc2)c2c3cc(-c4cnc5ccccc5c4)ccc3ncc21 [Dactolisib] + CC(=O)c1c(C)c2cnc(Nc3ccc(N4CCNCC4)cn3)nc2n(C2CCCC2)c1=O [Palbociclib] (partner 0.5 µM)
Outline: as §1

Dactolisib + AZD7762 = compound: Cn1c(=O)n(-c2ccc(C(C)(C)C#N)cc2)c2c3cc(-c4cnc5ccccc5c4)ccc3ncc21 [Dactolisib] + NC(=O)Nc1cc(-c2cccc(F)c2)sc1C(=O)N[C@H]1CCCNC1 [AZD7762] (partner 0.2 µM)
Outline: as §1

Dactolisib + Bortezomib = compound: Cn1c(=O)n(-c2ccc(C(C)(C)C#N)cc2)c2c3cc(-c4cnc5ccccc5c4)ccc3ncc21 [Dactolisib] + CC(C)C[C@H](NC(=O)[C@H](Cc1ccccc1)NC(=O)c1cnccn1)B(O)O [Bortezomib] (partner 0.002 µM)
Outline: as §1

Row | Cell Line | relative viability (AZ505 + Alpelisib; first compound 0.08 µM) | relative viability (AZ505 + Alpelisib; first compound 0.253 µM) | relative viability (AZ505 + Alpelisib; first compound 0.8 µM) | relative viability (AZ505 + Alpelisib; first compound 2.53 µM) | relative viability (AZ505 + Alpelisib; first compound 8 µM) | relative viability (Dactolisib + Palbociclib; first compound 0.002 µM) | relative viability (Dactolisib + Palbociclib; first compound 0.006325 µM) | relative viability (Dactolisib + Palbociclib; first compound 0.02 µM) | relative viability (Dactolisib + Palbociclib; first compound 0.06325 µM) | relative viability (Dactolisib + Palbociclib; first compound 0.2 µM) | relative viability (Dactolisib + AZD7762; first compound 0.002 µM) | relative viability (Dactolisib + AZD7762; first compound 0.006325 µM) | relative viability (Dactolisib + AZD7762; first compound 0.02 µM) | relative viability (Dactolisib + AZD7762; first compound 0.06325 µM) | relative viability (Dactolisib + AZD7762; first compound 0.2 µM) | relative viability (Dactolisib + Bortezomib; first compound 0.002 µM) | relative viability (Dactolisib + Bortezomib; first compound 0.006325 µM) | relative viability (Dactolisib + Bortezomib; first compound 0.02 µM) | relative viability (Dactolisib + Bortezomib; first compound 0.06325 µM) | relative viability (Dactolisib + Bortezomib; first compound 0.2 µM)
1 | NCI-H1944 | 0.845 | 0.858 | 0.839 | 0.806 | 0.881 | 0.403 | 0.334 | 0.23 | 0.192 | 0.181 | 0.374 | 0.47 | 0.401 | 0.24 | 0.195 |  |  |  |  | 
2 | NCI-H1793 | 0.734 | 0.804 | 0.827 | 0.844 | 0.881 | 0.289 | 0.212 | 0.21 | 0.212 | 0.19 | 0.44 | 0.361 | 0.38 | 0.246 | 0.11 |  |  |  |  | 
3 | NCI-H520 | 0.92 | 0.829 | 0.862 | 0.84 | 0.99 | 0.206 | 0.178 | 0.163 | 0.153 | 0.117 |  |  |  |  |  | 0.397 | 0.715 | 0.263 | 0.121 | 0.134
4 | A549 | 0.796 | 0.666 | 0.872 | 0.79 | 0.795 |  |  |  |  |  |  |  |  |  |  |  |  |  |  | 
5 | NCI-H358 | 0.699 | 0.741 | 0.859 | 0.729 | 0.795 | 0.141 | 0.146 | 0.134 | 0.112 | 0.096 | 0.474 | 0.545 | 0.559 | 0.445 | 0.188 |  |  |  |  | 
6 | NCI-H1563 | 0.932 | 0.911 | 0.873 | 0.886 | 0.915 |  |  |  |  |  |  |  |  |  |  | 0.904 | 0.903 | 0.819 | 0.603 | 0.59
7 | NCI-H1395 | 1.1 | 1.3 | 0.935 | 1.11 | 1.16 | 0.558 | 0.589 | 0.556 | 0.452 | 0.419 | 0.375 | 0.373 | 0.391 | 0.373 | 0.355 |  |  |  |  | 
8 | NCI-H2009 | 1.07 | 1.11 | 1.12 | 1.1 | 1.13 | 0.235 | 0.202 | 0.235 | 0.153 | 0.118 |  |  |  |  |  | 1.07 | 1.01 | 0.972 | 0.44 | 0.288
9 | NCI-H522 |  |  |  |  |  | 0.924 | 1 | 0.99 | 0.754 | 0.674 | 0.83 | 0.858 | 0.979 | 0.695 | 0.626 |  |  |  |  | 
10 | IA-LM | 0.793 | 1.05 | 0.925 | 0.723 | 1 |  |  |  |  |  |  |  |  |  |  | 0.828 | 0.691 | 0.511 | 0.145 | 0.0972
11 | SW 1573 | 0.658 | 0.714 | 0.661 | 0.82 | 0.858 | 0.395 | 0.324 | 0.225 | 0.154 | 0.116 |  |  |  |  |  | 1.18 | 0.847 | 0.771 | 0.331 | 0.373
12 | NCI-H1703 | 0.292 | 0.372 | 0.414 | 0.341 | 0.369 |  |  |  |  |  |  | 0.139 | 0.127 | 0.124 | 0.115 | 0.321 | 0.272 | 0.159 | 0.199 | 0.213
13 | SW 900 |  |  |  |  |  | 0.683 | 0.46 | 0.45 | 0.248 | 0.199 | 0.607 | 0.526 | 0.596 | 0.435 | 0.224 |  |  |  |  | 
